Experimental data reported in patent EP4729518A1, “CRYSTAL FORM OF METHIONINE ADENOSYLTRANSFERASE 2A HETEROCYCLIC INHIBITOR, PREPARATION METHOD THEREFOR, AND USE THEREOF” (Nanjing Chia Tai Tianqing Pharmaceutical Co., Ltd., priority 2023, dated 2024).

How the values were obtained:
[1] = In vivo pharmacokinetic study in ICR mice; details: mouse, PO @ 10 mg/kg, male ICR mice, plasma; for AUC(0-t): read-out: Area under the curve AUC0-t; for Cmax: read-out: Peak concentration Cmax
Experimental: Male ICR mice (6-10 weeks old, Vital River Laboratory Animal Technology Co., Ltd.) were housed in an SPF animal room at a temperature of 20-25 °C, with a relative humidity of 40%-70%, and under a 12/12-hour light/dark cycle. The animals were given free access to water and food. After at least 5 days of normal feeding, mice with good physical signs as determined by a veterinarian could be included in this experiment. Each mouse was marked with a number on the tail.
The day before the experiment, the mice were fasted overnight, with free access to water. They were fed 4 h after administration. The compound was prepared into a 20 mg/mL stock solution with DMSO. An appropriate volume of the 20 mg/mL stock solution was accurately pipetted into a glass flask, and then an appropriate volume of PEG400 was added. The mixture was mixed well, and then propylene glycol (PG) was added. The ratio of vehicles in the final formulation was DMSO:PEG400:PG (v/v/v) = 5:65:30. This process yielded a test dosing solution of each test compound at a concentration of 1 mg/mL.
The mice were weighed, and then the theoretical administration volume for each mouse was calculated according to the following formula. The actual administered dose for each mouse and the time of blood sample collection should be recorded in detail in the corresponding table. Theoretical administration volume(mL); = ((Dose(mg⋅kg^−1))/(Concentration of test solution(mg⋅mL^−1))) × Animal body weight(kg) [formula]
On the day of the experiment, the test dosing solution of each test compound was intragastrically administered to the mice in each group at a dose of 10 mg/kg. At each time point after administration, about 40 µL of blood was collected from the orbit of each mouse and then placed into an EDTA-K2 anticoagulation tube. The whole blood samples were centrifuged at 1500-1600 g for 10 min. The separated plasma was stored in a freezer at -40 °C to -20 °C for biological sample analysis.
The concentrations of the compounds in the biological samples obtained from the experiment were determined using an LC-MS/MS analysis method. Pharmacokinetic parameters were calculated using a non-compartmental model in Pharsight Phoenix 7.0.

HCT116 MTAP-/- cells = assay: Cellular assay: cell proliferation inhibition (CellTiter-Glo); type: cell-based; details: Homo sapiens, HCT-116; incubated for 120 h
Experimental: HCT116 MTAP-/- cells (purchased from Horizon Discovery) (a human colorectal cancer cell strain with deletion of MTAP gene) were cultured in a medium containing RPMI 1640 + 10% FBS (fetal bovine serum). On day 0 of the experiment, the viable cell density of the aforementioned cells in the logarithmic growth phase was adjusted to 5000 cells/mL, and then the cells were seeded into a 96-well plate at 100 µL/well, with blank group wells set up in parallel. The seeded cell plate was placed in an incubator at 37 °C with 5% CO2 and incubated overnight.
On day 1 of the experiment, the cell plate incubated overnight was taken out, and the supernatant was discarded. A serum-free RPMI 1640 medium was then added at 80 µL/well, and the plate was placed in an incubator for starvation culture for 4 h. The test compound was dissolved in DMSO (dimethyl sulfoxide) to prepare a 10 mM compound stock solution. After the starvation was completed, the cell plate was taken out, and a medium containing RPMI 1640 + 20% FBS was further added at 80 µL/well. The cell plate was placed on an automated dispenser D300e (Tecan), with the program for compound addition set as follows: the highest concentration of the compound tested was 30 µM, and 3-fold gradient dilution was performed with DMSO to give a total of 10 concentrations; two replicate wells were set for each concentration; the final concentration of DMSO in each well of the 96-well plate was 0.3% (v/v). The pre-prepared 10 mM test compound stock solution was taken and then added by running the aforementioned drug addition program. After the drug addition was completed, the cell plate was placed in an incubator and incubated for 120 h.
On day 6 of the experiment, the cell plate was taken out, and CellTiter-Glo® (purchased from Promega) was added at 50 µL/well. The […] was measured on Envision (PerkinElmer) according to the operation procedures in the instructions. […]

MAT2A enzyme = target: T1, MAT2A enzyme (Homo sapiens, UniProt P31153); assay: MAT2A enzymatic assay (Biomol Green, OD620); type: biochemical
T1 construct: purchased BPS 71401
T1 sequence (P31153 whole entry): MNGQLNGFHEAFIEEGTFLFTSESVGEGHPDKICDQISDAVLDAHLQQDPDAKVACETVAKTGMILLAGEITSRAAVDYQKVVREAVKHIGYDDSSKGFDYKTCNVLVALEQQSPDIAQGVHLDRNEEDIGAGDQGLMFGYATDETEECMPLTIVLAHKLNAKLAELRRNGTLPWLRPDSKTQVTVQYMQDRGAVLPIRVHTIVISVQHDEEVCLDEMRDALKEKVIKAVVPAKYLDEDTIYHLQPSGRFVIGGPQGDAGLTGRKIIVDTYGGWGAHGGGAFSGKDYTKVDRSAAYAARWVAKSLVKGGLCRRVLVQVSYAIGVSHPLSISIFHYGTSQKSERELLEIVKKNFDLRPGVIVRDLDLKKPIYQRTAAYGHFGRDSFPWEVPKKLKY
Experimental: • a) First, a 5× MAT2A assay buffer (250 mM Tris-HCl, pH 8.0; 250 mM KCl; 75 mM MgCl2; 0.025% BSA; 0.05% Brij35; 1.5 mM EDTA) was prepared and partially diluted to 1× for later use. • b) Preparation and addition of MAT2A enzyme (BPS, 71401): The MAT2A enzyme was diluted to 3.674 ng/µL (1.67×, final concentration: 2.20 ng/µL) with the 1× MAT2A assay buffer. Using a BioTek (MultiFlo FX) automated dispenser, the 1.67× MAT2A enzyme solution was added to the compound test wells and negative control wells of a plate at 15 µL/well, and meanwhile, the 1× MAT2A assay buffer was added to the blank control wells at 15 µL/well. • c) Preparation and addition of compounds: The test compound was diluted from a 10 mM stock solution to 100 µM with DMSO, and the positive control drug AGI-24512 was diluted under the same conditions. Using a Tecan compound dispenser (D300e), the dilutions were automatically dispensed into each well according to a preset concentration gradient. The dispensed volume was minimal and considered negligible. The concentration gradient started at 1 µM (1/2 log dilution), and a total of 8 gradient points were set. The plate was centrifuged at 2500 rpm for 30 s and incubated at 25 °C for 30 min. • d) Preparation of ATP: 10 mM ATP (Sigma, A7699) was diluted to 700 µM with the 1× MAT2A assay buffer for later use. • e) Preparation and addition of mixed solution of substrate and ATP: A mixed solution was prepared containing the 5× MAT2A assay buffer (3 µL/well), 750 µM L-methionine (Adamas, 01100469) (2.5 µL/well), 700 µM ATP (2.5 µL/well), and double distilled water (2 µL/well). The total amount of the required mixed solution was prepared according to the number of detection wells. Using a BioTek (MultiFlo FX) automated dispenser, the mixed solution was added at 10 µL/well. The resulting mixture was centrifuged at 2500 rpm for 30 s and allowed to react at 25 °C for 150 min. • f) Addition of Biomol Green detection reagent: Using a BioTek (MultiFlo FX) automated dispenser, Biomol Green (Enzo, BML-AK111) was added at 50 µL/well. The plate was centrifuged at 2500 rpm for 30 s and incubated at 25 °C for 20 min. • g) After the reaction was completed, the OD620 values were measured using a Perkin Elmer (Envision 2105) multimode microplate reader.
The inhibition rate was calculated using the following formula: Inhibition rate % = (ODmax −ODsample)/(ODmax −ODmin) × 100% [formula] where: • ODsample represents the OD620 value of the sample well; • ODmin represents the mean OD620 value of the blank control wells containing no enzyme and no test compound; • ODmax represents the mean OD620 value of the negative control wells containing enzyme but no compound. […]

[2] = Suspension stirring competition among anhydrous crystal forms (XRD); type: physicochemical; details: different solvents and temperatures (room temperature/50 °C)
Experimental: The interconversion relationships among the various anhydrous crystal forms were investigated using a suspension stirring competition method in different solvent systems at different temperatures. 1) Equal masses (3-4 mg) of the various anhydrous crystal forms (crystal forms A/B/C/G/H/L/M) were separately weighed and added to HPLC vials. To each vial, 1.0 mL of the corresponding solvent that had been pre-saturated with the crystal form G at the corresponding temperature was added. The resulting suspensions were magnetically stirred (1000 rpm) at room temperature or 50 °C. Samples were taken at 10 min, 3 d, and 7 d, and then centrifuged to collect the solids, which were then subjected to XRD analysis. Table 25: Summary of results of suspension stirring competition test among various anhydrous crystal forms
2) Equal masses (about 5 mg) of the various anhydrous crystal forms (crystal forms B/H/L) were separately weighed and added to HPLC vials. To each vial, 1.0 mL of a solvent that had been pre-saturated with the crystal form G at the corresponding temperature was added. The resulting suspensions were magnetically stirred (1000 rpm) at room temperature or 50 °C. Samples were taken at 10 min, 6 h, 1 d, 4 d, and 7 d, and then centrifuged to collect the solids, which were then subjected to XRD analysis. […]

[3] = Heating experiment via DSC followed by XRD; type: physicochemical; details: Heating temperature 250 °C
Source text: The heated samples were then collected and subjected to XRD analysis. Table 27: Summary of heating test results for various crystal forms

[4] = Long-term stability study (XRD and HPLC); type: physicochemical; details: 40±2 °C/75%±5% RH
Experimental: A sample of the crystal form L was placed under the conditions of 40±2 °C/75%±5% RH, and the physicochemical stability of the sample was tested using XRD and HPLC.

[5] = Solid state stability of crystal forms (XRD and HPLC); type: physicochemical
Experimental: Samples of the crystal forms B, H, and L were placed under the conditions of 25 °C/60% RH and 40 °C/75% RH for 17 days, and then the physicochemical stability of the samples was tested using XRD and HPLC. Table 24: Summary of solid state stability evaluation of crystal forms

O=c1c(-c2ccc3c(c2)OCO3)nn2ccc(C3CC3)nc2c1-c1ccc2c(c1)OCO2 [Example 2, 7,9-Bis(benzo[d][1,3]dioxol-5-yl)-2-cyclopropyl-8H-pyrimido[1,2-b]pyridazin-8-one]
AUC(0-t) [1]: 8730 ng·h/mL
Cmax [1]: 1370 ng/mL
IC50 (HCT116 MTAP-/- cells): 0.119 µM
IC50 (MAT2A enzyme): 0.0114 µM

Cn1cc2cc(-c3nn4ccc(C5CC5)nc4c(-c4ccc(OC(F)F)cc4)c3=O)ccc2n1 [Crystal form L, 2-cyclopropyl-9-[4-(difluoromethoxy)phenyl]-7-(2-methyl-2H-indazol-5-yl)-8H-pyrimido[1,2-b]pyridazin-8-one]
stability in suspension stirring competition [2]: stable crystal form
After heating (crystal form) [3]: Crystal form A
Crystal form change ([4]; 0 days): No
Water content ([4]; 0 days): Undetectable
Crystal form change ([4]; 1 month): No
Related substance Total impurities ([4]; 1 month): 0.22%
Water content ([4]; 1 month): Undetectable
Crystal form change ([4]; 2 months): No
Related substance Total impurities ([4]; 2 months): 0.26%
Crystal form change ([4]; 3 months): No
Related substance Total impurities ([4]; 3 months): 0.26%
Crystal form change ([4]; 6 months): No
Related substance Total impurities ([4]; 6 months): 0.27%
Water content ([4]; 6 months): Undetectable
Crystal form change ([5]; 0 day): No
Purity ([5]; 0 day): 98.60%
change in crystal form or purity ([5]; 25 °C/60% RH for 17 days): no change in either crystal form or purity
Crystal form change ([5]; 25 °C/60% RH/17 days): No
Purity ([5]; 25 °C/60% RH/17 days): 99.04%
change in crystal form or purity ([5]; 40 °C/75% RH for 17 days): no change in either crystal form or purity
Crystal form change ([5]; 40 °C/75% RH/17 days): No
Purity ([5]; 40 °C/75% RH/17 days): 99.00%

Cn1cc2cc(-c3nn4ccc(C5CC5)nc4c(-c4ccc(OC(F)F)cc4)c3=O)ccc2n1 [Example 3, 2-Cyclopropyl-9-[4-(difluoromethoxy)phenyl]-7-(2-methyl-2H-indazol-5-yl)-8H-pyrimido[1,2-b]pyridazin-8-one]
AUC(0-t) [1]: 78300 ng·h/mL
Cmax [1]: 4210 ng/mL
IC50 (HCT116 MTAP-/- cells): 0.0143 µM
IC50 (MAT2A enzyme): 0.0107 µM

O=c1c(-c2ccc(OC(F)F)cc2)nn2ccc(C3CC3)nc2c1-c1ccc(OC(F)F)cc1 [Example 1, 2-Cyclopropyl-7,9-bis[4-(difluoromethoxy)phenyl]-8H-pyrimido[1,2-b]pyridazin-8-one]
AUC(0-t) [1]: 45500 ng·h/mL
Cmax [1]: 2070 ng/mL
IC50 (HCT116 MTAP-/- cells): 0.26 µM
IC50 (MAT2A enzyme): 0.00644 µM
